One compound from ChEMBL document CHEMBL1201862, “PubChem BioAssay data set” (2004) can be followed below.

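Briefly, cells in 96-well plates were exposed to five compound concentrations for 48 h, and endpoints were estimated by linear interpolation. At the GI50, growth is halved.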 Active and inactive are the calls of the source. No stated cut-off is given here; in the data, active = GI50 up to about 1.1 µM and inactive = higher. Where only a bound is given, the exact number is not on record here.

Among the test systems are SK-MEL-5; CCRF-CEM; SK-OV-3; OVCAR-4; T47D; M19-MEL; HCT-15; DU-145; OVCAR-5; MDA-N; SR; SF-539; HCC 2998; LOX IMVI; TK-10; UO-31; HCT-116; CAKI-1; NCI-H460; HOP-62.
Common to all, as to assay: DTP human tumour cell line panel, 48 h

Take `O=C(c1nc2ccc([N+](=O)[O-])cc2nc1O)C(O)c1ccc2c(c1)OCO2` (stereo not given): the GI50 in the test with SK-MEL-5 was 45.7 µM (inactive); with CCRF-CEM, 83.9 µM (inactive); with SK-OV-3, > 100 µM (inactive); in the test on OVCAR-4 it was > 100 µM (inactive); with T47D, > 100 µM (inactive); in the test on M19-MEL, > 100 µM (inactive). The GI50 in the test with HCT-15 was more than 62.2 µM; in the test with DU-145 it was > 100 µM (inactive); with OVCAR-5, > 100 µM (inactive); in the test with MDA-N, 70.8 µM (inactive); in the test on SR it was > 100 µM (inactive); in the test with SF-539 it was > 100 µM (inactive). Also, the GI50 in the test on HCC 2998 is > 100 µM (inactive); with LOX IMVI it was > 67.9 µM (inactive); in the test with TK-10, > 100 µM (inactive); in the test with UO-31, > 100 µM (inactive); in the test with HCT-116, 52.7 µM (inactive); in the test on CAKI-1, > 96.2 µM (inactive). The GI50 with NCI-H460 and with HOP-62 was > 100 µM (inactive) throughout.
